Assay results: US8927600B2, “Compound for use in the treatment of peripheral neuropathies” (Biocodex, priority 2009, dated 2015)
“Also recorded” adds a separate entry of the source.

Assays:
[1] = test system: sensitive neurons extracted from rat embryo dorsal spinal ganglions; experiment: lactate dehydrogenase (LDH) released in the extracellular medium of the co-culture with or without cisplatin; type: cell-based; conditions: 24 hours, FIG. 3
Description: (§1) To be more precise, they studied the survival of sensitive neurons extracted from rat embryo dorsal spinal ganglions cultured in the presence of a cytotoxic agent, cisplatin, co-applied with stiripentol.
(§2) The co-culturing, for 5 days, of sensitive neurons (˜5-10% of the cultivated cell population) associated with Schwann cells and fibroblasts (˜95-90% of the cultivated cell population) is carried out in an appropriate medium as described in Hall et al. (1997) J. Neurosci. 17:2775-2784. […]
(§3) The density of the neuritic networks (axons and dendrites) labelled by an anti-β-tubulin antibody (ref T8660, Sigma, France) is then determined by measuring their length, together with the number of cell bodies marked by means of an anti-MAP2 antibody (ref M4403, Sigma, France) as indicated by Gill & Windebank (1998) J. Clin. Invest. […] Also determined is the amount of lactate dehydrogenase (LDH) (Kit de detection (detection kit), ref 1 644 793, Roche) released in the extracellular medium, the amount of which is proportional to the number of cells which are damaged or dead owing to the cisplatin-induced cell lysis, as indicated by Koh & Choi (1987) J Neurosci Methods 20:83-90.

[2] = test system: sensitive neurons extracted from rat embryo dorsal spinal ganglions; experiment: density of neuritic networks (total neurite length, anti-β-tubulin labelling) in sensitive neuron co-culture with or without cisplatin; type: cell-based; conditions: 24 hours, FIG. 1
Description: as §1, §2, §3

[3] = test system: sensitive neurons extracted from rat embryo dorsal spinal ganglions; experiment: number of cell bodies (anti-MAP2 labelling) in sensitive neuron co-culture with or without cisplatin; type: cell-based; conditions: 24 hours, FIG. 2
Description: as §1, §2, §3

[4] = test system: uptake of gamma-aminobutyric acid (GABA); conditions: cited from earlier work
[5] = test system: sensitive neurons extracted from rat embryo dorsal spinal ganglions; experiment: in vitro model of peripheral neuropathy (cisplatin), overall neuroprotective activity; type: cell-based; conditions: stiripentol 1-10 μM versus NGF 5 ng/ml; cisplatin 4.5 μg/ml, 24 hours
Description: as §1, §2, §3

[6] = target: CYP1A2 (Homo sapiens, UniProt P05177); conditions: Tran et al. (1997); cited from earlier work
[7] = target: CYP3A4 (Homo sapiens, UniProt P08684); conditions: Tran et al. (1997); cited from earlier work
[8] = in the presence of cisplatin 4.5 μg/ml, stiripentol 1, 3, 10 μM, NGF 5 ng/ml

Chain of CYP1A2 (P05177 whole entry): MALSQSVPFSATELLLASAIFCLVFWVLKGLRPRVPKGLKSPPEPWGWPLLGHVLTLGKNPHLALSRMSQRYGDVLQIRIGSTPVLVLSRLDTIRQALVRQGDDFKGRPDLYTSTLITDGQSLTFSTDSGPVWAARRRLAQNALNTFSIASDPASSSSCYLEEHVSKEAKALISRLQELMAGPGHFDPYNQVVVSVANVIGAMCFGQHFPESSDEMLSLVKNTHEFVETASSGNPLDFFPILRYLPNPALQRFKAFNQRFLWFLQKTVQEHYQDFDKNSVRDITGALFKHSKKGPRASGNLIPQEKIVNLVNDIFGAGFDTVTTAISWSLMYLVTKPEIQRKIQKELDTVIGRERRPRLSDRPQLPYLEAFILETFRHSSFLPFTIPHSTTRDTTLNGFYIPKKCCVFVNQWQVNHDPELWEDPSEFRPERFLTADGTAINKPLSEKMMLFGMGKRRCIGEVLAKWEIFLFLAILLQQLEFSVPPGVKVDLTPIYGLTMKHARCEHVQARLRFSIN
Chain of CYP3A4 (P08684 whole entry): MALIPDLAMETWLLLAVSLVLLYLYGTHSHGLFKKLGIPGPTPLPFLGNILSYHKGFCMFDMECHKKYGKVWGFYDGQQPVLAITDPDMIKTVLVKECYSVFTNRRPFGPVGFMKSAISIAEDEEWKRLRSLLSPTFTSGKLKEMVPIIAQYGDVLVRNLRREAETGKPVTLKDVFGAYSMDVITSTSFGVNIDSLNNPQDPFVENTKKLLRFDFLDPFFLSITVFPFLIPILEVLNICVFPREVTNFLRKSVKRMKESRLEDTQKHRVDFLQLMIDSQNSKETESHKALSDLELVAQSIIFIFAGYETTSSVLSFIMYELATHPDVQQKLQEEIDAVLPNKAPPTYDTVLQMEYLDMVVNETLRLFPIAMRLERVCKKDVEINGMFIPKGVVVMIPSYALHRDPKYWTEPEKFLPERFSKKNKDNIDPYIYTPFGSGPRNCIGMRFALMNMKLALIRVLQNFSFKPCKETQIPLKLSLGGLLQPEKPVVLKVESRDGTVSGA

Row | Compound | effect of cisplatin on cell lysis (LDH release) ([1]; cisplatin 4.5 μg/ml alone) | effect of cisplatin on the density of the neuritic networks ([2]; cisplatin 4.5 μg/ml alone) | effect of cisplatin on the cell bodies ([3]; cisplatin 4.5 μg/ml alone) | cell release of LDH [1, 8] | density of the neuritic networks (total length of the neurites) [2, 8] | number of neuronal cell bodies [3, 8] | inhibition of the uptake of gamma-aminobutyric acid (GABA) [4] | neuroprotective activity compared with NGF [5] | inhibition of CYP1A2 [6] | inhibition of CYP3A4 [7]
1 | N.N.[Cl][Pt][Cl] [cisplatin] | cell lysis | reduction in the density of the neuritic networks | degeneration of the cell bodies | – | – | – | – | – | – | –
2 | CC(C)(C)C(O)/C=C/c1ccc2c(c1)OCO2 (stereo not shown) [stiripentol, 4,4-dimethyl-1-[(3,4-methylenedioxy)-phenyl]-1-penten-3-ol] | – | – | – | neuroprotective effect | reduce the decrease in the density of the neuritic networks | reduce the decrease | inhibits the uptake of gamma-aminobutyric acid (GABA) | neuroprotective effect equivalent to that of NGF; also recorded: neuroprotective activity of the same order as that of NGF | inhibitor | inhibitor
